{"source": "patent US20230277669A1", "about": "“USES OF UROLITHINS” (Amazentis SA, priority 2022, published 2023)", "test_system": "CD8+ T cells", "experiment": "In vitro stimulation of CD3+ T cells with aCD3/aCD28 beads in presence of UA", "type": "cell-based, FVB mice", "conditions": "48 h, ICG001 with UA", "procedure": "(FIG. 2A) Scheme of CD3+ T-cell activation and analysis for various timepoints. (FIG. 2B) Reduced effector molecule expression on in vitro treated cells (n=3 pooled from three independent experiments). Isolated T-cells were stimulated for 48 h at the presence of UA or DMSO in the indicated doses. Data are mean ± SD, *p < 0.05 by two-sided t-test. (FIG. 2C) Reduced effector molecule expression on in vitro treated cells (n=3 pooled from three independent experiments). Isolated T-cells were stimulated for 48 h at the presence of UA or DMSO in the indicated doses. Data are mean ± SD, *p < 0.05 by two-sided t-test. (FIG. 2D) Quantification of T memory stem cells (TSCM: CD44^-CD62L^+Sca1^hi) after 24 h, 48 h and 96 h post stimulation with aCD3/aCD28 stimulation beads as indicated in (A) (n=4 pooled from four independent experiments). Data are mean ± SD, statistical analysis was performed via two-sided t-test (*p < 0.05; **p < 0.01; n.s. not significant). (FIG. 2E) Mitochondrial membrane potential within naïve CD62L^+CD44^-CD8^+ T cells, with TMRM^lo representing cells with low mitochondrial membrane potential. Cells were stimulated for 48 h as depicted in (A). Data are mean ± SD, n=4; ***p <0.001 by two-sided t-test. Experiment was repeated twice in independent experiments. (FIG. 2F) Representative histogram and quantification of memory marker CD95 expression in CD62L^+CD44^-CD8^+ cells, 48 hours after in vitro stimulation. Data are mean ± SD; n=5; ****p < 0.0001 by two-sided t-test. Data depicts one of two independent experiments. (FIG. 2G) Analysis of TIL of UA-fed mice, treated as depicted in FIG. 1J. Percentage of TSCM within CD8+ (G; n=7), as well as TCF1 (H; n=7) PD1^hi,Tim3^hi and CTLA4hi (I-K, all n=6) in the TIL CD8+ population are shown. Data are mean ± SD, statistical analysis was performed via two-sided t-test (*p < 0.05; **p < 0.01;, ***p <0.001.). Data depicts one of two independent experiments. (FIG. 2H) The same experiment as FIG. 2G with TCF1 (n=7) in the TIL CD8+ population. (FIG. 2I) The same experiment as FIG. 2G with PD1^hi (n=6) in the TIL CD8+ population. (FIG. 2J) The same experiment as FIG. 2G with Tim3^hi (n=6) in the TIL CD8+ population. (FIG. 2K) The same experiment as FIG. 2G with CTLA4hi (n=6) in the TIL CD8+ population. (FIG. 2L) Flow cytometry readout of ex vivo cytokine release of previously isolated TIL upon re-stimulation with PMA/ionomycin. Data are mean ± SD with n=7 per group. Statistical analysis was performed by two-sided t-test (**p < 0.01). One out of two independent experiments are shown. (FIG. 2M) Flow cytometry readout of ex vivo cytokine release of previously isolated TIL upon re-stimulation with PMA/ionomycin. Data are mean ± SD with n=7 per group. Statistical analysis was performed by two-sided t-test (**p < 0.01). One out of two independent experiments are shown.\n(FIG. 4A) Scheme of CD3+ T-cell activation and analysis for various timepoints in order to investigate mitophagy induction in vitro. (FIG. 4B) Analysis of mitochondrial membrane potential within CD8+ T cells, with TMRM^lo representing cells with low mitochondrial membrane potential. Analysis was performed six hours after stimulation with aCD/aCD28 stimulation beads at the presence of the indicated treatments. N=4 per group, *p < 0.05 by Mann Whitney U test. One of two independent experiments are shown. (FIG. 4C) Representative flow histogram and quantification of lysosome formation in CD8+ cells six hours after in vitro stimulation. MFI shown relative to DMSO controls, n=4. Data are normalised mean ± SD, statistical analysis by two-sided t-test. One out of two independent experiments are shown. (FIG. 4D) Mitotracker Red staining of in vitro stimulated CD8+ cells after 24 hours of Urolithin A (UA25 n=6; UA50 n=6) or vehicle control treatment (DMSO: n=4). A representative flow histogram depicting identification of Mitotracker^hi cells is shown. […]", "data": [{"smiles": "O=C1[C@H](Cc2ccc(O)cc2)N2C(=O)CCN(C(=O)NCc3ccccc3)[C@H]2CN1Cc1cccc2ccccc12", "note": "[ICG001, reference compound]", "values": [{"measurement": "UA-induced TCF1 expression", "value": "abrogated"}, {"measurement": "UA-induced TSCM formation", "value": "abrogated"}]}]}
